Reference: PMC10740956, “A Multitarget Approach against Neuroinflammation: Alkyl Substituted Coumarins as Inhibitors of Enzymes Involved in Neurodegeneration” (Antioxidants, 2023)
“And” between values parts separate entries of the source, which are not always exact repeats. Equal entries are not always repeated. “Also recorded” adds a separate entry of the source. Where two headings read alike, the source gives them in different places.

How the values were obtained:
[1] = test system: Interleukin-6 secretion from rat astrocytes pre-stimulated with LPS; test: IL-6 secretion by ELISA in LPS pre-stimulated astrocytes; format: cell-based; settings: 24 h, compared to LPS alone
Procedure: (§1) Cells were seeded (8 × 10^3/well) and were left to adhere for 24 h in 96-well plates (Falcon®, Corning Incorporated, NY, USA). The medium was removed, incubating the cell monolayer in the presence of increasing concentrations of DEP, AAZ, and test compounds (0–150 µM) for 24–72 h. In a second set of experiments, cells were pre-incubated in the presence of 0.1 µg/mL LPS (lipopolysaccharide from E. coli, purchased from Merck, Darmstadt, Germany) for 20 h and further exposed to DEP, AAZ, and test compounds in the same experimental conditions.
The amounts (pg/mL) of interleukin-6 (IL-6) were analyzed in cell supernatants using an ELISA kit (Enzo Life Sciences Inc., Lausen, Switzerland) following the manufacturer’s instructions. Absorbance was read at 450 nm and cytokine concentration was determined. Data obtained were normalized on MTT optical densities.

[2] = test system: CTX/TNA2 rat astrocytes; test: Cell metabolic activity assay (MTT), non-inflammatory conditions; format: cell-based; settings: 0-150 µM, 24-72 h
[3] = molecular target: hCA I (Homo sapiens, UniProt P00915); test: stopped flow CO2 hydrase assay, hCA I; format: biochemical; settings: mean of 3 different assays
hCA I, sequence (P00915 whole entry): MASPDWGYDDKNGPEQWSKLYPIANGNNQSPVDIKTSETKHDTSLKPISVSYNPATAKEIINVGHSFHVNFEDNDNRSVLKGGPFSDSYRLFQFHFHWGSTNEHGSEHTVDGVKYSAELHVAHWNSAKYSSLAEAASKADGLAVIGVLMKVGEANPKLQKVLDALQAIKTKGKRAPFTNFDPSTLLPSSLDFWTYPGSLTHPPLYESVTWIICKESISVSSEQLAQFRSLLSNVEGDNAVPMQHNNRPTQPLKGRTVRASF

[4] = molecular target: T1, hMAO-A (Homo sapiens, UniProt P21397); test: hMAO-A inhibition, recombinant enzyme, kynuramine substrate, fluorescence; format: biochemical; settings: for IC50: mean ± SD of triplicate determinations
T1 construct: purchased Sigma-Aldrich
T1 sequence (P21397 1-527): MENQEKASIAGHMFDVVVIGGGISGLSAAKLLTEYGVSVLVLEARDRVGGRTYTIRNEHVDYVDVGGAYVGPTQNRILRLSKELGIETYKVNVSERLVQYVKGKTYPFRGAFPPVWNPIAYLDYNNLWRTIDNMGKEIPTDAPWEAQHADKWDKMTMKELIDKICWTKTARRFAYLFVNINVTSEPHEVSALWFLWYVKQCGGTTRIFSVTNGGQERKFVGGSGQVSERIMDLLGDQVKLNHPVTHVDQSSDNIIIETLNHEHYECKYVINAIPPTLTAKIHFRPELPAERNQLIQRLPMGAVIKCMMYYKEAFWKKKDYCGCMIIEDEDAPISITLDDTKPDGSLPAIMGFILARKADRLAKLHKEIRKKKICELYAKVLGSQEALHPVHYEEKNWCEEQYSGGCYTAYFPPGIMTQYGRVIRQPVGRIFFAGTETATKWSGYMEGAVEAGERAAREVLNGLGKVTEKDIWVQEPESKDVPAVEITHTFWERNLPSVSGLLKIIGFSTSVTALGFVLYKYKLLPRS

[5] = molecular target: hCA VII (Homo sapiens, UniProt P43166); test: stopped flow CO2 hydrase assay, hCA VII; format: biochemical; settings: mean of 3 different assays
hCA VII, sequence (P43166 whole entry): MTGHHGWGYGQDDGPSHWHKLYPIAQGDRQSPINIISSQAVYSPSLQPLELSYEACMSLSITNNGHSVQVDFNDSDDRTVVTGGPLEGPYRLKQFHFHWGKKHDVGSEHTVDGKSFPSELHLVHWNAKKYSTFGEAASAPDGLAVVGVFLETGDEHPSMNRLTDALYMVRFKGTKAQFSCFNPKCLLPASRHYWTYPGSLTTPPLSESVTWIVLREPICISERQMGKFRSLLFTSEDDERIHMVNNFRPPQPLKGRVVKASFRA

[6] = molecular target: T2, BuChE (equine serum) (Equus caballus, UniProt P81908); test: biochemical; format: biochemical; settings: for IC50: mean ± SD of triplicate determinations
T2 construct: from tissue; host or cells: equine serum
T2 sequence (P81908 whole entry): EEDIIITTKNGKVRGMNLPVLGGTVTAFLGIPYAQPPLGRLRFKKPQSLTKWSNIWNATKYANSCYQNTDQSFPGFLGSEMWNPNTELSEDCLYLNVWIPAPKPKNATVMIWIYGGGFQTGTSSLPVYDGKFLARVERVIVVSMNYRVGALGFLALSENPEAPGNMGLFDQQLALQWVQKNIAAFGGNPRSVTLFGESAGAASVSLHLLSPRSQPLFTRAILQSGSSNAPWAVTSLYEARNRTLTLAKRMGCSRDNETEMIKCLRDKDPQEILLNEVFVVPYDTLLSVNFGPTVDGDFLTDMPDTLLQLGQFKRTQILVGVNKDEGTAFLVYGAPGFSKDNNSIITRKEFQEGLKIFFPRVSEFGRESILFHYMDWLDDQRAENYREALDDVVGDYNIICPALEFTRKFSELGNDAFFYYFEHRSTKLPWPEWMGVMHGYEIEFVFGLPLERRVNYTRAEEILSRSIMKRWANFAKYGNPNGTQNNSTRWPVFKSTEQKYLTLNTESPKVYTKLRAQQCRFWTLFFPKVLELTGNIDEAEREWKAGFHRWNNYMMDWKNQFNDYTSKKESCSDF

[7] = molecular target: T3, AChE (electric eel) (Electrophorus electricus, UniProt O42275); test: biochemical; settings: for IC50: mean ± SD of triplicate determinations; for inhibition at 100 µM: read-out: inhibition of AChE at 100 µM, 100 µM
T3 construct: from tissue
T3 sequence (O42275 24-633): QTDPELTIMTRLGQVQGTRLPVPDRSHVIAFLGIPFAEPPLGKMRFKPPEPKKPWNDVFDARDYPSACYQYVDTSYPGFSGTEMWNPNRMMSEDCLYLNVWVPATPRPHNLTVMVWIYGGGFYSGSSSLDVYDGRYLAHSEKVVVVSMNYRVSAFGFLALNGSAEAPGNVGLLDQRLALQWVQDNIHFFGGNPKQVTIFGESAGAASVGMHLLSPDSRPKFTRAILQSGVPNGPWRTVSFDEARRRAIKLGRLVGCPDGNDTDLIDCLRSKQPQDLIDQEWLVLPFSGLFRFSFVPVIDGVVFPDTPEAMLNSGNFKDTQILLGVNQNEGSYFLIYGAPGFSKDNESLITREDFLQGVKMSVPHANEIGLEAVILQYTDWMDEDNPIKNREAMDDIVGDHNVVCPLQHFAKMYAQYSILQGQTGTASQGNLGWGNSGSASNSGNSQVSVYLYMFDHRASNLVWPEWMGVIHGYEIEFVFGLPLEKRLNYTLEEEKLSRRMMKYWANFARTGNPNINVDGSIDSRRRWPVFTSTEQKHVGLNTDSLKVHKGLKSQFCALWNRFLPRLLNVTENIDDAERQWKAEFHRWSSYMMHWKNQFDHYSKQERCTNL

[8] = molecular target: hCA XII (Homo sapiens, UniProt O43570); test: stopped flow CO2 hydrase assay, hCA XII; format: biochemical
hCA XII, sequence (O43570 25-354): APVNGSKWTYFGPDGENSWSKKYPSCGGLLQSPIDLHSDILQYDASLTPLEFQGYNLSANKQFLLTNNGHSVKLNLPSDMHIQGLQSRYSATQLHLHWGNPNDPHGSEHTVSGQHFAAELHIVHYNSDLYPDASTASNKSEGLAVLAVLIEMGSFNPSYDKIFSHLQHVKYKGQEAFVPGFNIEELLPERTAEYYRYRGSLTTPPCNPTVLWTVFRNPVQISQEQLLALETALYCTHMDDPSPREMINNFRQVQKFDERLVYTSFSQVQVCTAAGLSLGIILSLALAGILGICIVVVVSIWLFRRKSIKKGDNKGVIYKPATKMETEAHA

[9] = molecular target: hCA II (Homo sapiens, UniProt P00918); test: stopped flow CO2 hydrase assay, hCA II; format: biochemical; settings: mean of 3 different assays
[10] = molecular target: hCA IX (Homo sapiens, UniProt Q16790); test: stopped flow CO2 hydrase assay, hCA IX; format: biochemical; settings: mean of 3 different assays
[11] = molecular target: T4, hMAO-B (Homo sapiens, UniProt P27338); test: hMAO-B inhibition, recombinant enzyme, kynuramine substrate, fluorescence; format: biochemical; settings: for SI (selectivity index for hMAO-B over hMAO-A): IC50 hMAO-A/IC50 hMAO-B; for IC50: mean ± SD of triplicate determinations
T4 construct: purchased Sigma-Aldrich
T4 sequence (P27338 1-520): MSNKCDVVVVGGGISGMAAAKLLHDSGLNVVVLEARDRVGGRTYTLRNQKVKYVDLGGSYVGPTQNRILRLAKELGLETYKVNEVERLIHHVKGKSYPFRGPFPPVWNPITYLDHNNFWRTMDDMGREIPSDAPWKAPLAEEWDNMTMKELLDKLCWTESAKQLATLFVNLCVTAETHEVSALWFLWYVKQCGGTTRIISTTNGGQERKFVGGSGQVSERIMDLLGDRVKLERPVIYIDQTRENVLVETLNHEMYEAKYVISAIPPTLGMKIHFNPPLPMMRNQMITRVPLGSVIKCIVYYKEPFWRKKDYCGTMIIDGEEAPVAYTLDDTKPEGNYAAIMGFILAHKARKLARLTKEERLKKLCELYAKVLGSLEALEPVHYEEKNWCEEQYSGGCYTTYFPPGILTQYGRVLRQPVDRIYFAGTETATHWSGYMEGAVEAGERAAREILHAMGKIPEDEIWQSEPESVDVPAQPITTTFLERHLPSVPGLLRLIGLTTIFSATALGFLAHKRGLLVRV

[12] = test system: CTX/TNA2 rat astrocytes pre-stimulated with LPS; test: Cell metabolic activity assay (MTT), LPS pre-stimulated astrocytes; format: cell-based; settings: pre-stimulated with 0.1 µg/mL LPS 20 h, then compounds 24 and 72 h
[13] = test system: H2O2 generation in rat astrocytes pre-stimulated with LPS; test: Hydrogen peroxide measurement in supernatants of LPS pre-stimulated astrocytes; format: cell-based; settings: 24 h
Procedure: as §1
At 24 h, cell supernatants were taken from the cultures used for the MTT assay. The quantitative determination of H2O2 released in supernatants was performed by means of a H2O2 colorimetric kit (cat. no. ADI-907-015, Enzo Life Sciences, Inc., Farmingdale, NY, USA). Then, 50 µL of supernatant/well was used and 100 µL of color reagent was added in each well. Next, wells were mixed and afterwards incubated for 30 min at r.t. The OD was measured following the manufacturer’s instructions.

CC(=O)Nc1nnc(S(N)(=O)=O)s1 [AAZ, acetazolamide, reference compound]
IL-6 secretion [1]: the highest concentrations of AAZ are capable of decreasing IL-6 secretion in a significant manner

C#CCCCOc1cc(=O)oc2ccccc12 [Compound 1, 4-(Pent-4-yn-1-yloxy)-2H-chromen-2-one]
cell metabolic activity (MTT), biocompatibility [2]: good biocompatibility, with a cell metabolic activity significantly decreased only after 48 h and at the highest concentration tested (150 µM)
Ki [3]: 6.26 µM
IC50 [4]: > 10 µM and 51.2 µM
Ki [5]: 0.0598 µM
IC50 [6]: 33 ± 1 µM
IC50 [7]: > 100 µM
Ki ([8]; mean of 3 different assays): 0.0048 µM
Ki [9]: > 10 µM
Ki [10]: 0.0172 µM
SI (selectivity index for hMAO-B over hMAO-A) [11]: <0.51
IC50 [11]: > 100 µM

C#CCCCCOc1cc(=O)oc2ccccc12 [Compound 2, 4-(Hex-5-yn-1-yloxy)-2H-chromen-2-one]
cell metabolic activity (MTT), biocompatibility [2]: good biocompatibility, with a cell metabolic activity significantly decreased only after 48 h and at the highest concentration tested (150 µM)
Ki [3]: > 10 µM
IC50 [4]: > 10 µM and 10.8 µM
Ki [5]: 0.0469 µM
BuChE mode of inhibition ([6]; Cornish-Bowden plots): mixed inhibition mechanism
Kib BuChE (inhibitor binding the ES complex) ([6]; Cornish-Bowden plots): 25 ± 3 µM
Ki ([6]; Cornish-Bowden plots, read-out: Kia BuChE (inhibitor binding the free enzyme) (converted)): 13 µM
IC50 [6]: 21 ± 1 µM
IC50 [7]: > 100 µM
Ki ([8]; mean of 3 different assays): 0.0048 µM
cell metabolic activity (MTT) versus LPS only control [12]: able to counteract the LPS-induced increase in cell metabolic activity
Ki [9]: > 10 µM
Ki [10]: 0.009 µM
SI (selectivity index for hMAO-B over hMAO-A) [11]: 0.42
IC50 [11]: > 10 µM and 25.9 µM

C#CCOc1ccc2oc(=O)ccc2c1 [Compound 3, 6-(Prop-2-ynyloxy)-2H-chromen-2-one]
cell metabolic activity (MTT), biocompatibility [2]: well tolerated up to 48 h and display a good biocompatibility at the longest exposure time (72 h)
IC50 [4]: > 10 µM and 40.2 µM
Ki [5]: 0.0617 µM
IC50 [6]: > 100 µM
IC50 [7]: > 100 µM
cell metabolic activity (MTT) versus LPS only control [12]: able to counteract the LPS-induced increase in cell metabolic activity
IC50 [11]: > 10 µM and 65.4 µM

CC#CCOc1ccc2oc(=O)ccc2c1 [Compound 4, 6-(But-2-yn-1-yloxy)-2H-chromen-2-one]
cell metabolic activity (MTT), biocompatibility [2]: well tolerated up to 48 h and display a good biocompatibility at the longest exposure time (72 h)
Ki [3]: > 10 µM
IC50 [4]: > 10 µM and 55.7 µM
Ki [5]: 0.0633 µM
H2O2 generation ([13]; 10 µM): restoring it to the untreated control levels
IC50 [6]: > 100 µM
IC50 [7]: > 100 µM
Ki ([8]; mean of 3 different assays): 0.0043 µM
Ki [9]: > 10 µM
Ki [10]: 0.0242 µM
SI (selectivity index for hMAO-B over hMAO-A) [11]: 4.6
IC50 [11]: > 10 µM and 12.1 µM

C#CCOc1ccc2ccc(=O)oc2c1 [Compound 5, 7-(Prop-2-ynyloxy)-2H-chromen-2-one]
cell metabolic activity (MTT), biocompatibility [2]: cell metabolic activity significantly decreases at all the concentrations tested at 48 h
Ki [3]: > 10 µM
Ki [5]: 0.0519 µM
H2O2 generation ([13]; 0.01 µM): restoring it to the untreated control levels
IC50 [6]: > 100 µM
IC50 [7]: > 100 µM
Ki ([8]; mean of 3 different assays): 0.73 µM
Ki [9]: > 10 µM
IL-6 secretion [1]: had an effect on IL-6 release
IC50 [11]: 5.79 ± 0.26 µM

CC#CCOc1ccc2ccc(=O)oc2c1 [Compound 6, 7-(But-2-yn-1-yloxy)-2H-chromen-2-one]
cell metabolic activity (MTT), biocompatibility [2]: cell metabolic activity significantly decreases at all the concentrations tested at 48 h
Ki [3]: > 10 µM
IC50 [4]: 21.3 ± 0.77 µM
Ki [5]: 0.0682 µM
H2O2 generation ([13]; 150 µM): restoring it to the untreated control levels
IC50 [6]: > 100 µM
IC50 [7]: > 100 µM
Ki ([8]; mean of 3 different assays): 0.0068 µM
Ki [9]: > 10 µM
Ki [10]: 0.0093 µM
SI (selectivity index for hMAO-B over hMAO-A) [11]: 85.3
IC50 [11]: 0.25 ± 0.017 µM

CCC#CCOc1ccc2ccc(=O)oc2c1 [Compound 7, 7-(Pent-2-yn-1-yloxy)-2H-chromen-2-one]
Ki [3]: > 10 µM
IC50 [4]: 11.2 ± 0.39 µM
Ki [5]: 0.0635 µM
H2O2 generation ([13]; 0.01 µM): restoring it to the untreated control levels; also recorded: strong reduction in H2O2 release
IC50 [6]: 59 ± 1 µM
inhibition at 100 µM [7]: 50%
Ki [8]: 0.0068 µM
Ki [9]: > 10 µM
Ki [10]: 0.013 µM
IC50 [11]: 0.008 ± 0.00062 µM

C#CCCCOc1ccc2ccc(=O)oc2c1 [Compound 8, 7-(Pent-4-yn-1-yloxy)-2H-chromen-2-one]
Ki [3]: > 10 µM
IC50 [4]: 5.7 ± 0.21 µM
Ki [5]: 0.0693 µM
IC50 [6]: > 100 µM
IC50 [7]: > 100 µM
Ki ([8]; mean of 3 different assays): 0.0065 µM
cell metabolic activity (MTT) versus LPS only control [12]: able to counteract the LPS-induced increase in cell metabolic activity
Ki [9]: > 10 µM
Ki [10]: 0.0266 µM
IC50 [11]: 0.51 ± 0.0099 µM

C#CCCCCOc1ccc2ccc(=O)oc2c1 [Compound 9, 7-(Hex-5-yn-1-yloxy)-2H-chromen-2-one]
Ki [3]: > 10 µM
Ki ([4]; Lineweaver-Burk plots): 0.146 µM
hMAO-A inhibition mechanism ([4]; Lineweaver-Burk plots): competitive inhibition mechanism
IC50 [4]: 0.65 ± 0.027 µM
Ki [5]: 0.0771 µM
H2O2 generation ([13]; 10 µM): restoring it to the untreated control levels
IC50 [6]: 51 ± 4 µM
inhibition at 100 µM [7]: 50%
Ki ([8]; mean of 3 different assays): 0.0059 µM
cell metabolic activity (MTT) versus LPS only control [12]: able to counteract the LPS-induced increase in cell metabolic activity
Ki [9]: > 10 µM
Ki [10]: 0.0313 µM
IL-6 secretion [1]: decreases the amount of the cytokine at 0.01 and 10 µM
SI (selectivity index for hMAO-B over hMAO-A) [11]: 92.8
Ki ([11]; Lineweaver-Burk plots): 0.0023 µM
hMAO-B inhibition mechanism ([11]; Lineweaver-Burk plots): competitive inhibition mechanism
IC50 [11]: 0.007 ± 0.00035 µM

C#CCN(C)C(C)Cc1ccccc1 (stereo not shown) [DEP, deprenyl, reference compound]
IL-6 secretion [1]: increases the amount of IL-6 at the highest concentration tested
